Experimental data as given in ChEMBL document CHEMBL5356972, “Design and synthesis of cantharidin derivative DCZ5418 as a TRIP13 inhibitor with anti-multiple myeloma activity in vitro and in vivo” (Bioorg Med Chem Lett, 2024).
Calls of active or inactive are those of the source. No cut-off for these calls is given here.

Tests used:
[1] = Inhibition of cell growth in human H929R cells at 10 uM incubated for 48 hrs by CCK-8 assay relative to control; type: functional
[2] = target: T1, Pachytene checkpoint protein 2 homolog (Homo sapiens) (UniProt Q15645); experiment: Binding affinity to TRIP13 (unknown origin) by SPR analysis
T1 sequence (whole entry): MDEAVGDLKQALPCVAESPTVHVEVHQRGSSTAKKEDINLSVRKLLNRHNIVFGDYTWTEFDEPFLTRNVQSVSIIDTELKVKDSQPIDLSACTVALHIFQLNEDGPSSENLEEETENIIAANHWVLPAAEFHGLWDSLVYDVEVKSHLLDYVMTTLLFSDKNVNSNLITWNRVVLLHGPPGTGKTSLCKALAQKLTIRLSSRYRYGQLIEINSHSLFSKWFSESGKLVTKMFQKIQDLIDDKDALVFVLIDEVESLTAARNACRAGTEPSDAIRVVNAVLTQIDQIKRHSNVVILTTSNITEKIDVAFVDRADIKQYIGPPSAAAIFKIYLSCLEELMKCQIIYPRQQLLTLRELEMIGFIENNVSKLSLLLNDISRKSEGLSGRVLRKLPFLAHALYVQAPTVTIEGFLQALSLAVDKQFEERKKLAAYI

[3] = Inhibition of cell growth in human OCI-My5 cells incubated for 48 hrs by CCK-8 assay; settings: OCI-My5, 48 h
[4] = Inhibition of cell growth in human ARP-1 cells incubated for 48 hrs by CCK-8 assay; settings: ARP-1, 48 h
[5] = Inhibition of cell growth in human H929R cells incubated for 48 hrs by CCK-8 assay
[6] = Toxicity in immunodeficient nude mouse xenografted with human H929R cells assessed as reduction in body weight at 25 mg/kg, ip administered once daily for 16 days; type: organism-based; settings: in vivo, 384 h, time 16 day
[7] = tested on: H929R; experiment: Inhibition of cell growth in human H929R cells at 10 uM incubated for 48 hrs by CCK-8 assay; type: functional, cell-based
[8] = Toxicity in immunodeficient nude mouse xenografted with human H929R cells assessed as reduction in body weight at 15 mg/kg, ip administered once daily for 16 days; type: organism-based; settings: in vivo, 384 h, time 16 day
[9] = Acute toxicity in mouse assessed as liver injury at 50 mg/kg, ip; type: organism-based; settings: in vivo
[10] = Acute toxicity in mouse assessed as kidney injury at 50 mg/kg, ip; type: organism-based; settings: in vivo
[11] = Acute toxicity in mouse assessed as reduction in spontaneous activities at 50 mg/kg, ip; type: organism-based; settings: in vivo
[12] = Inhibition of cell growth in human CD138-positive cells at 20 uM incubated for 48 hrs by CCK-8 assay relative to control; type: functional
[13] = Acute toxicity in mouse assessed as abnormal behaviors at 50 mg/kg, ip; type: organism-based; settings: in vivo
[14] = Acute toxicity in mouse assessed as heart injury at 50 mg/kg, ip; type: organism-based; settings: in vivo
[15] = target: T2, Pachytene checkpoint protein 2 homolog (Homo sapiens, UniProt Q15645); experiment: Binding affinity to TRIP13 (unknown origin) assessed as dissociation constant by SPR analysis
T2 sequence (Q15645 whole entry): T1 sequence (whole entry)

[16] = tested on: H929R; experiment: Antitumor activity against human H929R cells xenografted in immunodeficient nude mouse assessed as reduction in tumor growth at 15 mg/kg, ip administered once daily for 16 days by vernier caliper method; type: functional, organism-based; settings: time 16.0 day

## CN1CCN(C(=O)C2CCCCC2C(=O)Nc2ccc(Cc3ccncc3)cc2)CC1 (stereo unspecified)
[1]
  inhibition at 10 µM: 17.2%

## O=C1C2C3CCC(C3)C2C(=O)N1c1ccc(Cc2ccncc2)cc1 (stereo unspecified)
[2]
  Activity: inactive
[1]
  inhibition at 10 µM: 41.4%

## O=C1C2C3C=CC(C4CC34)C2C(=O)N1c1ccc(Cc2ccncc2)cc1 (stereo unspecified)
[3]
  IC50: 5.12 µM
[4]
  IC50: 4.13 µM
[5]
  IC50: 1.35 µM
[1]
  inhibition at 10 µM: 28.2%
[6]
  Activity: Non-Toxic

## CN1CCN(C(=O)C2CCCCC2C(=O)Nc2ccc(Oc3ccncc3)cc2)CC1 (stereo unspecified)
[7]
  inhibition: Active

## CN1CCN(C(=O)C2C3C=C(Br)C(O3)C2C(=O)Nc2ccc(Cc3ccncc3)cc2)CC1 (stereo unspecified)
[1]
  inhibition at 10 µM: 43.1%

## O=C(NCCCO)C1CCCCC1C(=O)Nc1ccc(Cc2ccncc2)cc1 (stereo unspecified)
[1]
  inhibition at 10 µM: 6.9%

## O=C1C2C3C=C(Br)C(O3)C2C(=O)N1c1ccc(Oc2ccncc2)cc1 (stereo unspecified)
[7]
  inhibition: Active

## C[C@@]12C(=O)N(c3ccc(Cc4ccncc4)cc3)C(=O)[C@]1(C)[C@H]1CC[C@@H]2O1.Cl
[8]
  Activity: Non-Toxic

## C[C@@]12C(=O)OC(=O)[C@]1(C)[C@H]1CC[C@@H]2O1 [CANTHARIDIN]
[2]
  Activity: inactive
[9]
  Activity: Toxic
[10]
  Activity: Toxic
[11]
  Activity: Toxic

## CN1CCN(C(=O)C2C3C=CC(O3)C2C(=O)Nc2ccc(Cc3ccncc3)cc2)CC1 (stereo unspecified)
[1]
  inhibition at 10 µM: 29.8%

## O=C(NCCCO)C1C2C=CC(O2)C1C(=O)Nc1ccc(Cc2ccncc2)cc1 (stereo unspecified)
[1]
  inhibition at 10 µM: 21.2%

## C[C@@]12C(=O)N(c3ccc(Cc4ccncc4)cc3)C(=O)[C@]1(C)[C@H]1CC[C@@H]2O1 [listing 1 of 2 here]
[12]
  inhibition at 20 µM: 57%
[3]
  IC50: 4.32 µM
[4]
  IC50: 3.18 µM
[5]
  IC50: 8.47 µM
[1]
  inhibition at 10 µM: 49.3%
[13]
  Activity: Non-Toxic
[14]
  Activity: Non-Toxic
[9]
  Activity: Non-Toxic
[10]
  Activity: Non-Toxic

## O=C1C2C3C=C(Br)C(O3)C2C(=O)N1c1ccc(Cc2ccncc2)cc1 (stereo unspecified)
[15]
  Kd: 149 µM
[1]
  inhibition at 10 µM: 51.7%

## C[C@@]12C(=O)N(c3ccc(Cc4ccncc4)cc3)C(=O)[C@]1(C)[C@H]1CC[C@@H]2O1 [listing 2 of 2 here]
[16]
  Activity: Active
